Patent US10131652B2, “Pyrimidinyloxy benzene derivatives as herbicides” (E. I. DU PONT DE NEMOURS AND COMPANY, priority 2014, dated 2018)
Like-named read-outs stand apart in the source and are kept apart here.

Legend:
Format in all cases: in vivo
[1] = tested on: Italian ryegrass (Lolium multiflorum); assay: Test D pre-/postemergence plant response; conditions: Lolium multiflorum; for pest or weed control at 16 g/ha: 16 g ai/ha; for pest or weed control at 31 g/ha: 31 g ai/ha; for pest or weed control at 62 g/ha: 62 g ai/ha; for pest or weed control at 125 g/ha: 125 g ai/ha
Excerpt: (§1) Seeds of plant species selected from blackgrass (Alopecurus myosuroides), Italian ryegrass (Lolium multiflorum), winter wheat (Triticum aestivum), galium (catchweed bedstraw, Galium aparine), corn (Zea mays), large (Lg) crabgrass (Digitaria sanguinalis), giant foxtail (Setaria faberii), johnsongrass (Sorghum halepense), lambsquarters (Chenopodium album), morningglory (Ipomoea coccinea), yellow nutsedge (Cyperus esculentus), pigweed (Amaranthus retroflexus), ragweed (common ragweed, Ambrosia elatior), soybean (Glycine max), bamyardgrass (Echinochloa crus-galli), oilseed rape (Brassica napus), waterhemp (common waterhemp, Amaranthus rudis), and velvetleaf (Abutilon theophrasti) were planted into a blend of loam soil and sand and treated preemergence with test chemicals formulated in a non-phytotoxic solvent mixture which included a surfactant. At the same time, plants selected from these crop and weed species and also kochia (Kochia scoparia), wild oat (Avena fatua), and chickweed (common chickweed, Stellaria media) were planted in pots containing Redi-Earth® planting medium (Scotts Company, 14111 Scottslawn Road, Marysville, Ohio 43041) comprising spaghnum peat moss, vermiculite, wetting agent and starter nutrients and treated with postemergence applications of test chemicals formulated in the same manner. Plants ranged in height from 2 to 18 cm (1- to 4-leaf stage) for postemergence treatments. Treated plants and controls were maintained in a greenhouse for 13 to 15 days, after which time all species were compared to controls and visually evaluated. Plant response ratings, summarized in Table D, are based on a scale of 0 to 100 where 0 is no effect and 100 is complete control. A dash (-) response means no test result.

[2] = tested on: galium (catchweed bedstraw, Galium aparine); assay: Test D pre-/postemergence plant response; conditions: Galium; for pest or weed control at 16 g/ha: 16 g ai/ha; for pest or weed control at 31 g/ha: 31 g ai/ha; for pest or weed control at 62 g/ha: 62 g ai/ha; for pest or weed control at 125 g/ha: 125 g ai/ha
Excerpt: as §1

soybean (Glycine max) = assay: Test D pre-/postemergence plant response; conditions: Glycine max; for plant injury at 16 g/ha: 16 g ai/ha; for plant injury at 31 g/ha: 31 g ai/ha; for plant injury at 62 g/ha: 62 g ai/ha; for plant injury at 125 g/ha: 125 g ai/ha
Excerpt: as §1

[3] = tested on: large (Lg) crabgrass (Digitaria sanguinalis); assay: Test D pre-/postemergence plant response; conditions: Digitaria sanguinalis; for pest or weed control at 16 g/ha: 16 g ai/ha; for pest or weed control at 31 g/ha: 31 g ai/ha; for pest or weed control at 62 g/ha: 62 g ai/ha; for pest or weed control at 125 g/ha: 125 g ai/ha
Excerpt: as §1

[4] = tested on: yellow nutsedge (Cyperus esculentus); assay: Test D pre-/postemergence plant response; conditions: Cyperus; for pest or weed control at 16 g/ha: 16 g ai/ha; for pest or weed control at 31 g/ha: 31 g ai/ha; for pest or weed control at 62 g/ha: 62 g ai/ha; for pest or weed control at 125 g/ha: 125 g ai/ha
Excerpt: as §1

corn (Zea mays) = assay: Test B pre-/postemergence plant response; conditions: Zea mays, post-emergence, 240 h; Postemergence, 1000 g ai/ha; 0 to 100 scale (0 no effect, 100 complete control)
Outline: (§2)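 Steps: plant seeds in loam soil–sand mix; spray soil preemergence, and in parallel spray 2–10 cm one- to two-leaf plants postemergence; hold ~10 days in greenhouse; visually rate injury against untreated controls (0 = no effect, 100 = complete control).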

[5] = tested on: wheat (Triticum aestivum); assay: Test B pre-/postemergence plant response; conditions: Triticum aestivum, post-emergence, 240 h; Postemergence, 1000 g ai/ha; 0 to 100 scale (0 no effect, 100 complete control); read-out: Plant response rating, Wheat
Outline: as §2

[6] = tested on: barnyardgrass (Echinochloa crus-galli); assay: Test B pre-/postemergence plant response; conditions: Echinochloa crus-galli, 240 h, 1000 g ai/ha, 0 to 100 scale (0 no effect, 100 complete control), read-out: Plant response rating, Barnyardgrass
Outline: as §2

[7] = tested on: pigweed (Amaranthus retroflexus); assay: Test B pre-/postemergence plant response; conditions: Amaranthus retroflexus, 240 h, 1000 g ai/ha, 0 to 100 scale (0 no effect, 100 complete control), read-out: Plant response rating, Pigweed
Outline: as §2

[8] = tested on: giant foxtail (Setaria faberii); assay: Test B pre-/postemergence plant response; conditions: Setaria faberi, 240 h, 1000 g ai/ha, 0 to 100 scale (0 no effect, 100 complete control), read-out: Plant response rating, Foxtail, Giant
Outline: as §2

[9] = post-emergence, Postemergence, scale 0 to 100 (0 no effect, 100 complete control), read-out: Ryegrass, Italian plant response rating
[10] = post-emergence, Postemergence, scale 0 to 100, 0 no effect, 100 complete control, read-out: Plant response rating, Ryegrass, Italian
[11] = pre-emergence, Preemergence, scale 0 to 100 (0 no effect, 100 complete control), read-out: Plant response rating, Ryegrass, Italian
[12] = post-emergence, Postemergence, scale 0 to 100 (0 no effect, 100 complete control), read-out: Galium plant response rating
[13] = post-emergence, Postemergence, scale 0 to 100, 0 no effect, 100 complete control, read-out: Plant response rating, Galium
[14] = pre-emergence, Preemergence, scale 0 to 100 (0 no effect, 100 complete control), read-out: Plant response rating, Galium
[15] = post-emergence, Postemergence, scale 0 to 100 (0 no effect, 100 complete control), read-out: Soybean plant response rating
[16] = post-emergence, Postemergence, scale 0 to 100, 0 no effect, 100 complete control, read-out: Plant response rating, Soybean
[17] = pre-emergence, Preemergence, scale 0 to 100 (0 no effect, 100 complete control), read-out: Plant response rating, Soybean
[18] = post-emergence, Postemergence, scale 0 to 100 (0 no effect, 100 complete control), read-out: Crabgrass, Large plant response rating
[19] = post-emergence, Postemergence, scale 0 to 100, 0 no effect, 100 complete control, read-out: Plant response rating, Crabgrass, Large
[20] = pre-emergence, Preemergence, scale 0 to 100 (0 no effect, 100 complete control), read-out: Plant response rating, Crabgrass, Large
[21] = post-emergence, Postemergence, scale 0 to 100 (0 no effect, 100 complete control), read-out: Nutsedge, Yellow plant response rating
[22] = post-emergence, Postemergence, scale 0 to 100, 0 no effect, 100 complete control, read-out: Plant response rating, Nutsedge, Yellow
[23] = pre-emergence, Preemergence, scale 0 to 100 (0 no effect, 100 complete control), read-out: Plant response rating, Nutsedge, Yellow

With Fc1cccc(Oc2ncc(Cl)cn2)c1-c1cc(C(F)F)on1 [Compound 55, 5-chloro-2-[2-[5-(difluoromethyl)-3-isoxazolyl]-3-fluorophenoxy]pyrimidine] the pest or weed control at 16 g/ha [1, 9] was 0%, the pest or weed control at 31 g/ha [1, 9] was 5% and the pest or weed control at 62 g/ha [1, 10] was 10%. It also gave a pest or weed control at 125 g/ha [1, 10] of 15%, a pest or weed control at 125 g/ha ([1]; pre-emergence, Preemergence, read-out: Plant response rating (scale 0 to 100), Ryegrass, Italian) of 95% and a pest or weed control at 16 g/ha [1, 11] of 15%. It also gave a pest or weed control at 31 g/ha [1, 11] of 35%, a pest or weed control at 62 g/ha [1, 11] of 85% and a pest or weed control at 16 g/ha [2, 12] of 80%. The pest or weed control at 31 g/ha [2, 12] was 90%, the pest or weed control at 62 g/ha [2, 13] was 90% and the pest or weed control at 125 g/ha [2, 13] was 90%. It also gave a pest or weed control at 125 g/ha ([2]; pre-emergence, Preemergence, read-out: Plant response rating (scale 0 to 100), Galium) of 100%, a pest or weed control at 16 g/ha [2, 14] of 100% and a pest or weed control at 31 g/ha [2, 14] of 100%. For the same molecule, the pest or weed control at 62 g/ha [2, 14] was 100%, the plant injury at 16 g/ha (soybean (Glycine max); [15]) was 65% and the plant injury at 31 g/ha (soybean (Glycine max); [15]) was 75%. The plant injury at 62 g/ha (soybean (Glycine max); [16]) was 90%, the plant injury at 125 g/ha (soybean (Glycine max); [16]) was 95% and the plant injury at 125 g/ha (soybean (Glycine max); pre-emergence, Preemergence, read-out: Plant response rating (scale 0 to 100), Soybean) was 98%. The plant injury at 16 g/ha (soybean (Glycine max); [17]) was 25%, the plant injury at 31 g/ha (soybean (Glycine max); [17]) was 35% and the plant injury at 62 g/ha (soybean (Glycine max); [17]) was 95%. It also gave a pest or weed control at 16 g/ha [3, 18] of 5%, a pest or weed control at 31 g/ha [3, 18] of 10% and a pest or weed control at 62 g/ha [3, 19] of 10%. For the same molecule, the pest or weed control at 125 g/ha [3, 19] was 15%, the pest or weed control at 125 g/ha ([3]; pre-emergence, Preemergence, read-out: Plant response rating (scale 0 to 100), Crabgrass, Large) was 100% and the pest or weed control at 16 g/ha [3, 20] was 100%. The pest or weed control at 31 g/ha [3, 20] was 100%, the pest or weed control at 62 g/ha [3, 20] was 100% and the pest or weed control at 16 g/ha [4, 21] was 0%. It also gave a pest or weed control at 31 g/ha [4, 21] of 5%, a pest or weed control at 62 g/ha [4, 22] of 5% and a pest or weed control at 125 g/ha [4, 22] of 5%. The pest or weed control at 125 g/ha ([4]; pre-emergence, Preemergence, read-out: Plant response rating (scale 0 to 100), Nutsedge, Yellow) was 70%, the pest or weed control at 16 g/ha [4, 23] was 0% and the pest or weed control at 31 g/ha [4, 23] was 10%. It also gave a pest or weed control at 62 g/ha [4, 23] of 55%, a Corn plant response rating (crop injury, 0 = no effect, 100 = complete kill) at 1000 g/ha (corn (Zea mays)) of 100% and a plant injury at 1000 g/ha [5] of 100%. It also gave a pest or weed control at 1000 g/ha ([6]; post-emergence, Postemergence) of 100%, a pest or weed control at 1000 g/ha ([6]; pre-emergence, Preemergence) of 100% and a pest or weed control at 1000 g/ha ([7]; post-emergence, Postemergence) of 100%. It also gave a pest or weed control at 1000 g/ha ([7]; pre-emergence, Preemergence) of 100%, a pest or weed control at 1000 g/ha ([8]; post-emergence, Postemergence) of 100% and a pest or weed control at 1000 g/ha ([8]; pre-emergence, Preemergence) of 100%.
